Test system: children with confirmed ASD diagnoses
Assay: Outcome of therapies received prior to the subject treatment, as reported by parents
Format: in vivo, human

Row | Molecule | result of prior 5-metylhydrofolate and Metylcobalamin B-12 (patient one, given together) | result of prior treatment by Valtrex and Viferon (patient one, given together) | result of prior Valtrex, according to parents the most effective prior therapy (patient two)
1 | Metylcobalamin B-12 | more self-dependence | – | –
2 | CN1c2c(nc(N)[nH]c2=O)NCC1CNc1ccc(C(=O)N[C@@H](CCC(=O)O)C(=O)O)cc1 (stereo partly shown) [5-metylhydrofolate] | more self-dependence | – | –
3 | CC(C)[C@H](N)C(=O)OCCOCn1cnc2c(=O)[nH]c(N)nc21 [Valtrex, valacyclovir] | – | they are getting sick more rarely, learned to swim and to communicate through PECS cards | they became more communicative, attempts to speak appeared, became calmer, eye contact has improved

— patent publication US20210128567A1, “Compositions and Methods for Cognitive, Immune and Digestive Support in Patients with Autism Spectrum Disorder” (FLAASK, LLC, priority 2017, published 2021)
